According to publication PMC4790851, “Iminosugars Inhibit Dengue Virus Production via Inhibition of ER Alpha-Glucosidases—Not Glycolipid Processing Enzymes” (PLoS Neglected Tropical Diseases, 2016):
Where two headings read alike, the source gives them in different places. Blank lines part the entries; values can stand above or below the molecule they belong to.

Columns and labels:
DENV = test system: DENV; design: method as in PMID 22020302; conditions: BHK-21 (hamster kidney) cell culture model; cited from earlier work
dengue infection = test system: dengue infection; design: method as in PMID 24877997, PMID 12355369; conditions: oral, 400 mg loading dose then 200 mg/dose b.i.d.; cited from earlier work
[1] = biological target: T1, Human lysosome α-galactosidase (Homo sapiens, UniProt P06280); test: In vitro enzyme inhibition; assay type: biochemical; conditions: concentration required to inhibit the enzyme to 50% activity; read-out: IC50
T1 sequence (P06280 32-429): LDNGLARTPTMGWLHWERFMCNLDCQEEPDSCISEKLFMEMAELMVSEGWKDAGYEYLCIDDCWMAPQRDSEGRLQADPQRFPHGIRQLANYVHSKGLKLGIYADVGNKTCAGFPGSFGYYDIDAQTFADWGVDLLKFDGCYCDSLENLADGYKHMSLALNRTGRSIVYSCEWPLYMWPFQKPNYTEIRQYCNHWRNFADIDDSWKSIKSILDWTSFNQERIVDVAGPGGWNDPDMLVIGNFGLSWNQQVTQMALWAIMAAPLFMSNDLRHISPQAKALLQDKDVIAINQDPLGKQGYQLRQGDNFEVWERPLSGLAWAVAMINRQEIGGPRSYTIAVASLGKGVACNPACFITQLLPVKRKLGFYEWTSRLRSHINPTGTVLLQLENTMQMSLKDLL

Glucosyltransferase HL60 = biological target: T2, Glucosyltransferase HL60 (Homo sapiens, UniProt Q16739); test: In vitro enzyme inhibition; assay type: biochemical; conditions: glucosyltransferase isolated from HL60 human promyelocytic cell line; read-out: IC50
T2 construct: endogenous in cells; host or cells: HL60
T2 sequence (Q16739 1-394): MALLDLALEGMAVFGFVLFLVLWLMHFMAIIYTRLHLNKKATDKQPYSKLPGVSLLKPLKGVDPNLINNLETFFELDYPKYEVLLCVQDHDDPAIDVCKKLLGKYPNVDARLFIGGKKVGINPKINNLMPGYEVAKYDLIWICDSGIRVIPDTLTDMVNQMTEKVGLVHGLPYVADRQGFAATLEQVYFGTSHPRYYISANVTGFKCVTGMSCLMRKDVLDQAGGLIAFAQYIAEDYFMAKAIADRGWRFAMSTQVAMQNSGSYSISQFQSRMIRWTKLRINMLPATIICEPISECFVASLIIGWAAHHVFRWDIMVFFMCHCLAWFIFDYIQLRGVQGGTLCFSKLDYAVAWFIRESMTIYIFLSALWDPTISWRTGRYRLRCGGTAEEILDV

DENV2 strain 16681 = test: In vitro antiviral assay: infectious DENV titer from infected MDMΦs by LLC-MK2 plaque assay; assay type: cell-based, dengue virus serotype 2
[2] = test system: lysosomal β-N-acetylhexosaminidase; test: Free oligosaccharide analysis in MDMΦs: hexosaminidase-related FOS; assay type: cell-based, human; conditions: MNTD, 48 h
Protocol: MDMΦ were infected with DENV2 16681 diluted to a multiplicity of infection (MOI) of 1 in X-VIVO10 without supplements for 90 minutes (20°C, with rocking). Upon removal of virus, fresh MDMΦ growth medium without IL-4 but containing serial dilutions of drug or control was placed on the cells, and cells were incubated for 48 hours (37°C, 5% CO2). For collection of infectious virus, supernatant was harvested and centrifuged for 5 minutes (room temperature, 400 x g) to pellet any cells/debris, and supernatants were aliquoted and stored at -80°C until analysis by plaque assay. In the case of FOS and GSL assays where MDMΦ were uninfected, treatments were essentially as above except that no virus was added and cells were washed three times with sterile PBS after 24 or 48 hours as per sample time point. […]
MDMΦ FOS were detected as previously described by Alonzi et al.. […] Glycans were separated by normal phase-high performance liquid chromatography (NP-HPLC), and peak area was used to assess molar quantity in comparison to standards of known identity and quantity. […] Absorbance values (Axxx) at 595 nm and 420 nm were measured, and the ratio of A595 to A420 was used to determine protein concentration in comparison to a serially diluted standard of bovine serum albumin.

[3] = Dengue virus, DENV2, LLC-MK2, 48 h, MDMΦs infected with DENV2 MOI 1, drug 48 h, infectious titer by plaque assay, table values with 95% confidence interval in parentheses, read-out: EC50

SMILES: CCCC(=O)O[C@H]1CN2CC[C@H](O)[C@@H]2[C@@H](O)[C@@H]1O [Celgosivir, 6-O-butanoyl-castanospermine]
- enhancement of antiviral efficacy over castanospermine (DENV): ~ 100 fold
- reduction in viral load or fever burden in patients (dengue infection): failed to demonstrate reduction in viral load or fever burden
- IC50 [1]: > 1000 µM
- IC50 (Glucosyltransferase HL60): > 1000 µM
- EC50 (DENV2 strain 16681; [3]): 5 µM
- Enhancement (fold improvement of antiviral EC50 versus parent compound) (DENV2 strain 16681; EC50 parent / EC50 derivative, parent DNJ or castanospermine): 7 fold
- EC50 (DENV2 strain 16681; MDMΦs infected with DENV2 MOI 1, drug 48 h, infectious titer by plaque assay, table values with 95% confidence interval in parentheses, read-out: EC50): 5.17 µM

SMILES: CCCCN1C[C@H](O)[C@@H](O)[C@@H](O)[C@H]1CO [NB-DGJ]
- FOS generated by inhibition of lysosomal β-N-acetylhexosaminidase [2]: do produce FOS generated by inhibition of lysosomal β-N-acetylhexosaminidase

- IC50 [1]: 35.5 µM
SMILES: CCCCCCCCCN1C[C@H](O)[C@@H](O)[C@@H](O)[C@H]1CO [NN-DGJ]
- FOS generated by inhibition of lysosomal β-N-acetylhexosaminidase [2]: do produce FOS generated by inhibition of lysosomal β-N-acetylhexosaminidase

SMILES: CCCCN1C[C@H](O)[C@@H](O)[C@H](O)[C@H]1CO [NB-DNJ, N-butyl-DNJ]
- EC50 (DENV2 strain 16681; [3]): 10.6 µM
- EC50 (DENV2 strain 16681; Dengue virus, DENV2, LLC-MK2, 48 h, MDMΦs, DENV2, 48 h, read-out: 95% CI for antiviral EC50): 7.77 to 14.5 µM
